Data published in article PMC4972714 (Bioorganic & medicinal chemistry, 2016).

Experiments:
[1] = test system: HIV-1 NL4-3 in U87-CD4/CXCR4 cells; test: Viral replication assay, p24 read-out; type: cell-based; details: 10 µM, infection over several days, NL4-3 in U87-CD4/CXCR4 cells (Fig. 1A)
[2] = test system: HIV-1 RRE IIB RNA; test: Dot blot assay, binding to RRE IIB RNA; details: dot blot Kd relative to BPBA3
[3] = target: HIV-1 RRE IIB RNA; details: native Rev protein with RRE; ref [26], [58]; cited from earlier work

Q: Which “HIV-1 replication screening, p24 expression” value (from here on “HIV-1 replication screening”) [1] does the source give for `Nc1ccn([C@@H]2CS[C@H](CO)O2)c(=O)n1` [3TC, 2′,3′-dideoxy-3′-thiacytidine] here?
A: completely abolished p24 expression

Q: For `Cc1cn([C@H]2C[C@H](N=[N+]=[N-])[C@@H](CO)O2)c(=O)[nH]c1=O` [AZT, azidothymidine], which “HIV-1 replication screening” value [1] is on record?
A: completely abolished p24 expression

Q: With Elvitegravir as the compound, how does the “HIV-1 replication screening” value [1] read?
A: completely abolished p24 expression

Q: Which “loss in binding affinity towards RRE IIB versus BPBA3” value [2] does the source give for FBPAYFBPA*NKSY [LBPBA3A] here?
A: 2 fold

Q: Which “loss in binding affinity towards RRE IIB versus BPBA3” value [2] does the source give for FBPAYFBPAFBPAYFBPA*NKSY [LBPBA3B] here?
A: 3 fold

Q: For Raltegravir, which “HIV-1 replication screening” value [1] is on record?
A: completely abolished p24 expression

Q: Which “dissociation constant with RRE” value [3] does the source give for “Rev protein: native HIV-1 Rev protein that binds RRE” here?
A: low nanomolar range
